US20140243414A1, “PHARMACEUTICAL COMPOSITIONS OF CETP INHIBITORS” (Japan Tobacco Inc., priority 2003, published 2014)
Like-named read-outs stand apart in the source and are kept apart here.

Experiments:
[1] = Plasma pharmacokinetics of the active form of Compound I, single oral doses after standard breakfast, Japanese males (Example 3); assay type: in vivo, human; settings: Examples 1-4
Method: Administration, dosing, and sampling schedules were commensurate with those described in Example 1. The tablets were prepared as described in Example 1.

CETP [2] = biological target: T1, CETP (Homo sapiens, UniProt P11597); test: Food effect on CETP activity, 900 mg Compound I, Caucasian males (Example 6); assay type: in vivo; settings: for change in vivo at 900 mg: read-out: Percent change from pre-dose in CETP activity (mean)
T1 construct: from tissue; host or cells: blood / plasma of human subjects dosed orally with Compound I
T1 sequence (P11597 18-493): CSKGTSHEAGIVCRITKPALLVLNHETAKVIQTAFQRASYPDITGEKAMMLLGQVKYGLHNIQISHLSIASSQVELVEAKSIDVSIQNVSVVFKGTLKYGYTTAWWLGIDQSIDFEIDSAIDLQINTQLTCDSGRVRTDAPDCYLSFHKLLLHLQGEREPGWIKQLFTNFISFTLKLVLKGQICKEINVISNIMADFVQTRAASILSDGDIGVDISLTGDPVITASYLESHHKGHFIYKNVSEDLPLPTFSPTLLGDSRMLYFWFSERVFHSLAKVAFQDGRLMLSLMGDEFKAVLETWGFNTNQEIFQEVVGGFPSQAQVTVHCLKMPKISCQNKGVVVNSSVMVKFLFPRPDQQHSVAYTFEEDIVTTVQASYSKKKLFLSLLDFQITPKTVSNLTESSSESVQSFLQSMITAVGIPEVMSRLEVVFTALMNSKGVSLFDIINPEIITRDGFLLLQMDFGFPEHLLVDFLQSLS
From the text: Administration, dosing, and sampling schedules were substantially similar to those described in Example 1.
The procedure for determining CETP activity is described in Example 5.
The mean changes from baseline (pre-dose) in CETP activity over time are set out in the plot of FIG. 3.

CETP [3] = biological target: T1, CETP; test: Food effect on relative CETP activity, 600 mg Compound I, Japanese males (Example 8); assay type: in vivo
Method: Administration, dosing, and sampling schedules were commensurate with those described in Examples 1 and 6. […] Patients were administered two tablets of 300 mg each. The tablets were prepared as described in Example 1.
Relative CETP activities (calculated as a percentage of baseline CETP activity) and standard deviations (SD) were measured, and the resulting data is summarized in Table 9.

CETP [4] = biological target: T1, CETP; test: CETP activity after 4 weeks daily treatment, healthy volunteers (Example 9); assay type: in vivo; settings: for Absolute change in CETP activity: 4 weeks treatment, mean ± SD; for Decrease in CETP activity relative to baseline: 4 weeks
Method: (§1) Each patient took three tablets after breakfast each day for 4 weeks. Patients either took three placebo tablets (placebo); one 300 mg tablet and two placebo tablets (low dose); two 300 mg tablets and one placebo tablet (medium dose); or three 300 mg tablets (high dose). Tablet preparation was as described as in Example 1.
(§2) The testing period consisted of (a) a run-in period of 4 weeks, followed by (b) 4 weeks of treatment, and (c) 4 weeks of monitoring. Blood samples were drawn after an overnight fast. […] HDL-C was determined with a heparin MnCl2 precipitation reagent and LDL-C was calculated by the Friedewald formula (see, de Grooth et al., supra). CETP activity was measured as described in Example 5.
(§3) Table 11 describes the absolute changes in the assayed properties after 4 weeks of treatment.

TC, HDL-C, LDL-C = test: Lipid levels after 4 weeks daily treatment, healthy volunteers (Example 9); assay type: in vivo, human; settings: for Decrease in TC/HDL-C ratio relative to baseline / Increase in HDL-C levels relative to baseline: 4 weeks; for Absolute change in HDL-C / Absolute change in TC / Absolute change in TC/HDL-C ratio / Absolute change in LDL-C: 4 weeks treatment, mean ± SD; for Absolute change in LDL-C: LDL-C by Friedewald formula
Method: as §1, §2, §3

CCC(CC)CC1(C(=O)Nc2ccccc2SC(=O)C(C)C)CCCCC1 [Compound I, S-[2-([[1-(2-ethylbutyl)cyclohexyl]carbonyl]amino)phenyl]2-methylpropanethioate]
Bioavailability (as indicated by Cmax, AUC0-tz, AUC0-∞) in Oriental (especially Japanese) humans as compared to Caucasian humans [1]: greater | change in vivo at 900 mg (CETP [2]; 1 h, fasted, 1 h): 1% | change in vivo at 900 mg (CETP [2]; 1 h, fed, 1 h): -1% | change in vivo at 900 mg (CETP [2]; 2 h, fasted, 2 h): 2% | change in vivo at 900 mg (CETP [2]; 2 h, fed, 2 h): -16% | change in vivo at 900 mg (CETP [2]; 4 h, fasted, 4 h): -4% | change in vivo at 900 mg (CETP [2]; 4 h, fed, 4 h): -44% | change in vivo at 900 mg (CETP [2]; 6 h, fasted, 6 h): -10% | change in vivo at 900 mg (CETP [2]; 6 h, fed, 6 h): -59% | change in vivo at 900 mg (CETP [2]; 8 h, fasted, 8 h): -15% | change in vivo at 900 mg (CETP [2]; 8 h, fed, 8 h): -58% | change in vivo at 900 mg (CETP [2]; 24 h, fasted, 24 h): -10% | change in vivo at 900 mg (CETP [2]; 24 h, fed, 24 h): -34% | CETP activity, Post-study (all subjects) (CETP [2]; all subjects (fed and fasted periods), post-study): 96 | CETP activity relative to pre-dose (CETP [3]; fasted, 1 h): 102.1% | CETP activity relative to pre-dose (CETP [3]; fasted, 2 h): 99.6% | CETP activity relative to pre-dose (CETP [3]; fasted, 4 h): 96.5% | CETP activity relative to pre-dose (CETP [3]; fasted, 6 h): 89.5% | CETP activity relative to pre-dose (CETP [3]; fasted, 8 h): 87.8% | CETP activity relative to pre-dose (CETP [3]; fasted, 24 h): 92.6% | CETP activity relative to pre-dose (CETP [3]; fasted, post-study): 100.4% | CETP activity relative to pre-dose (CETP [3]; fed, 1 h): 100.4% | CETP activity relative to pre-dose (CETP [3]; fed, 2 h): 87.8% | CETP activity relative to pre-dose (CETP [3]; fed, 4 h): 52.6% | CETP activity relative to pre-dose (CETP [3]; fed, 6 h): 37.6% | CETP activity relative to pre-dose (CETP [3]; fed, 8 h): 39.1% | CETP activity relative to pre-dose (CETP [3]; fed, 24 h): 65.5% | CETP activity relative to pre-dose (CETP [3]; fed, post-study): 102.9% | Absolute change in CETP activity (CETP [4]; 300 mg per day after breakfast): −15.4 ± 11.9 % of control | Decrease in CETP activity relative to baseline (CETP [4]; 300 mg per day with food): about 17% | Absolute change in CETP activity (CETP [4]; 600 mg per day after breakfast): −29.6 ± 19.5 % of control | Decrease in CETP activity relative to baseline (CETP [4]; 600 mg per day with food): about 33% | Absolute change in CETP activity (CETP [4]; 900 mg per day after breakfast): −37.2 ± 17.6 % of control | Decrease in CETP activity relative to baseline (CETP [4]; 900 mg per day with food): about 39% | Decrease in TC/HDL-C ratio relative to baseline (TC, HDL-C, LDL-C; 300 mg per day): about 13% | Increase in HDL-C levels relative to baseline (TC, HDL-C, LDL-C; 300 mg per day): about 15% | Absolute change in HDL-C (TC, HDL-C, LDL-C; 300 mg per day): 0.18 ± 0.15 mmol/L | Absolute change in TC (TC, HDL-C, LDL-C; 300 mg per day): −0.1 ± 0.5^ mmol/L | Absolute change in TC/HDL-C ratio (TC, HDL-C, LDL-C; 300 mg per day): −0.7 ± 0.8 | Absolute change in LDL-C (TC, HDL-C, LDL-C; 300 mg per day): −0.2 ± 0.5^ mmol/L | Decrease in TC/HDL-C ratio relative to baseline (TC, HDL-C, LDL-C; 600 mg per day): about 18% | Increase in HDL-C levels relative to baseline (TC, HDL-C, LDL-C; 600 mg per day): about 26% | Absolute change in HDL-C (TC, HDL-C, LDL-C; 600 mg per day): 0.32 ± 0.22 mmol/L | Absolute change in TC (TC, HDL-C, LDL-C; 600 mg per day): 0.0 ± 0.6 mmol/L | Absolute change in TC/HDL-C ratio (TC, HDL-C, LDL-C; 600 mg per day): −0.9 ± 0.8 | Absolute change in LDL-C (TC, HDL-C, LDL-C; 600 mg per day): −0.2 ± 0.6^ mmol/L | Decrease in TC/HDL-C ratio relative to baseline (TC, HDL-C, LDL-C; 900 mg per day): about 23% | Increase in HDL-C levels relative to baseline (TC, HDL-C, LDL-C; 900 mg per day): about 34% | Absolute change in HDL-C (TC, HDL-C, LDL-C; 900 mg per day): 0.40 ± 0.29 mmol/L | Absolute change in TC (TC, HDL-C, LDL-C; 900 mg per day): 0.0 ± 0.6 mmol/L | Absolute change in TC/HDL-C ratio (TC, HDL-C, LDL-C; 900 mg per day): −1.2 ± 0.7 | Absolute change in LDL-C (TC, HDL-C, LDL-C; 900 mg per day): -0.3 ± 0.6 mmol/L
